Experimental data taken from patent publication US20260217646A1, “SPERMINE DERIVATIVE AND THERAPEUTIC USE THEREOF FOR DISEASES” (Institute of Basic Medical Sciences, Chinese Academy of …, priority 2022, published 2026).

Experiments:
[1] = test system: JAK-STAT signaling pathway (IFN-β mediated); assay: Western blot of type I interferon signaling pathway activation in mouse primary peritoneal macrophages stimulated with mIFN-β; assay type: cell-based; conditions: 10 μM SD1 pretreatment 3 hours, mIFN-β 500 μg/ml for different time periods, Western blot (FIG. 2A)
Procedure: PMs were obtained using the method as described in Example 2 and cultured in endotoxin-free high-glucose DMEM medium containing 10% FBS. The cells were pretreated with 10 μM SD1 for 3 hours. For the control group cells (at a dose of 0), an equal volume of DMSO was added to the medium. Afterwards, the cells were stimulated with mIFN-β (at a dose of 500 μg/ml) for different time periods. Subsequently, total cellular proteins were extracted, and the activation of the type I interferon signaling pathway was detected using Western blot (FIG. 2A).

[2] = test system: Human T-lymphocytic leukemia Jurkat cells (IL-2 secretion); assay: IL-2 ELISA in PMA/ionomycin-activated Jurkat cells; assay type: cell-based; conditions: 10 μM SD1 pretreatment 3 hours; PMA 50 ng/ml and ionomycin for 24 hours; ELISA (FIG. 4A)
Procedure: Human T-lymphocytic leukemia Jurkat cells were cultured in RPMI1640 medium containing 10% FBS. The cells were pretreated with SD1 at a dose of 10 μM for 3 hours. For the control group cells (at a dose of 0), an equal volume of DMSO was added to the medium. Subsequently, the cells were continued to be stimulated with phorbol ester (PMA, 50 ng/ml) and ionomycin ([…]) for 24 hours. The cell culture supernatant was collected, and the level of IL-2 was detected using enzyme linked immunosorbent assay (ELISA) (FIG. 4A).

[3] = test system: ISG promoter in RAW264.7 cells; assay: ISG promoter-reporter (luciferase) assay in RAW264.7 cells under mIFN-β stimulation; assay type: cell-based, mouse; conditions: 10 μM SD1 pretreatment 3 hours; mIFN-β 1 ng/ml for 7 hours; luciferase in supernatant (FIG. 1A)
Procedure: The RAW264.7 cell line with ISG promoter-reporter gene was purchased from Invivogen and cultured in DMEM containing 10% fetal bovine serum (FBS). The cells were pretreated with 10 μM SD1 for 3 hours. A concentrated solution of the above-mentioned SD1 was freshly formulated in DMSO at a concentration of 20 mM before each use, and subsequently diluted as needed. Afterwards, the cells were stimulated with recombinant mouse interferon-beta (mIFN-β) at a dose of 1 ng/ml for 7 hours, and the cell culture supernatant was obtained. Meanwhile, the luciferase substrate powder was dissolved in 25 ml of deionized water under dark conditions, aliquoted, and stored at −80° C. for preparation of the luciferase substrate. 20 μl of the culture supernatant was transferred to a Luciferase specific 96-well ELISA plate, and detected using Thermo VARIOSKAN FLASH microplate-reader (FIG. 1A).

[4] = test system: JAK-STAT signaling pathway (IL-2 mediated); assay: Western blot of signaling pathway activation in mouse spleen cells stimulated with IL-2; assay type: cell-based; conditions: 10 μM SD1 pretreatment 3 hours, IL-2 10 ng/ml for different time periods, Western blot (FIG. 2B)
Procedure: Mouse spleen single cells were isolated from spleens of the male mice 6-8 weeks old, and the cells freshly obtained were cultured in RPMI1640 medium containing 10% FBS, non-essential amino acids, and β-mercaptoethanol. The cells were pretreated with 10 μM SD1 for 3 hours. For the control group cells (at a dose of 0), an equal volume of DMSO was added to the medium. Subsequently, the cells were stimulated with 10 ng/ml recombinant mouse interleukin-2 (IL-2) for different time periods. The cells were collected, total cellular proteins were extracted, and the activation of the type I interferon signaling pathway was detected using Western blot (FIG. 2B).

[5] = test system: ISG genes in peripheral blood cells of SLE model mice; assay: ISG expression in peripheral blood cells of pristane-induced SLE model mice; assay type: in vivo, mouse; conditions: C57 female mice; SD1 10 mg/kg intraperitoneal once a day for 5 days before pristane; blood on days 4 and 6 (FIG. 3A to 3C)
Description: Lupus-like symptoms similar to those in human patients were induced in mice by the hydrocarbon compound pristane (also referred as norphytane, 2,6,10,14-tetramethylpentadecane) (Zhuang et al., Animal Models of Interferon Signature Positive Lupus. Front Immunol. 2015. 6: p. 291; Nacionales, D. C et al. (2006). Type I interferon production by tertiary lymphoid tissue developing in response to 2,6,10,14-tetramethyl-pentadecane (pristane). The American journal of pathology 168, 1227-1240; Reeves, W. H et al. (2009). Induction of autoimmunity by pristane and other naturally occurring hydrocarbons. Trends Immunol. 30, 455-464). […] It is a recognized model that is able to simulate the overexpression of type I interferon in SLE patients, which can aid in elucidating the pathogenesis of SLE and finding therapeutic targets.
Firstly, C57 female mice were pretreated by intraperitoneal injection of PBS and SD1 (10 mg/kg, once a day, for 5 consecutive days). Subsequently, SLE mice were induced by intraperitoneal injection of pristane (500 μl/mouse). On days 4 and 6 after the injection of pristane, blood was collected from the eye-fundus vascular plexus, and total RNA was obtained from the peripheral blood by using Trizol to detect the effect of spermine on the early type I interferon effect of pristane-induced mice.

[6] = test system: interferon-stimulated genes (ISGs) Ifit1 and Mx1; assay: qPCR of interferon-stimulated gene mRNAs in mouse primary peritoneal macrophages after mIFN-β stimulation; assay type: cell-based; conditions: 10 μM SD1 pretreatment 3 hours, mIFN-β 500 μg/ml for 3 hours, qPCR (FIG. 1B)
Procedure: 2 ml of 3% mercaptoacetate (dissolved in double distilled water at a ratio in % by m/v, and then subjected to high-pressure sterilization treatment) was injected into C57BL/6 mice (6-8 weeks old, male) intraperitoneally. After 3 days, mouse primary peritoneal macrophages (PMs) were isolated from the C57BL/6 mice and cultured in endotoxin-free high-glucose DMEM medium containing 10% FBS.
The next day, the medium was replaced by fresh complete medium, and the cells were pretreated with 10 μM SD1 for 3 hours. For the control group cells (at a dose of 0), an equal volume of DMSO was added to the medium. Afterwards, the cells were stimulated with mIFN-β (at a dose of 500 μg/ml) for 3 hours, and RNAs were subsequently extracted for reverse transcription. The contents of mRNAs (including Ifit1 and Mx1) of interferon-stimulated genes (ISGs) were detected and analyzed by fluorescence quantitative PCR (qPCR) method using commercial primers and conditions recommended by manufacturers (FIG. 1B).

NFAT = assay: Jurkat-Lucia NFAT reporter gene assay; assay type: cell-based, human; conditions: Jurkat-Lucia NFAT cells; 10 μM SD1 pretreatment 3 hours; PMA 50 ng/ml and ionomycin 300 ng/ml for 24 hours (FIG. 4B)
Procedure: Jurkat-Lucia NFAT reporter cell line was purchased from invivogen and cultured in RPMI1640 medium containing 10% FBS. The cells were pretreated with 10 μM SD1 for 3 hours. For the control group cells (at a dose of 0), an equal volume of DMSO was added to the medium. Subsequently, PMA (50 ng/ml) and ionomycin (300 ng/ml) were used to stimulate for 24 hours. The cell culture supernatant was obtained. Meanwhile, the luciferase substrate powder was dissolved in 25 ml of deionized water under dark conditions, aliquoted and stored at −80° C. for the preparation of the luciferase substrate. 20 μl of the culture supernatant was transferred to a Luciferase specific 96-well ELISA plate, and detected using Thermo VARIOSKAN FLASH microplate-reader (FIG. 4B).

`CC(C(=O)NCCCNCCCCNCCCNC(=O)C(C)(c1ccccc1)c1ccccc1)(c1ccccc1)c1ccccc1` [SD1] was tested, and the “activation of the JAK-STAT signaling pathway mediated by IFN-β (levels of p-JAK1, p-TYK2, p-STAT1/2)” value [1] was “effectively inhibit”, the “IL-2 secretion level of activated Jurkat cells” value [2] was “effectively inhibit” and the “activity of ISG promoter in RAW264.7 cells” value [3] was “effectively inhibit”. The “activation of the JAK-STAT signaling pathway mediated by IL-2 (levels of p-JAK1, p-TYK2, p-STAT1/2)” value [4] was “effectively inhibit”, the “ISG expression (Ifit1, Isg15, Rsad2) in peripheral blood cells of SLE model mice” value [5] was “inhibit” and the “expression of Ifit1 mRNA downstream of type I interferon” value [6] was “reduce”. The “expression of Mx1 mRNA downstream of type I interferon” value [6] was “reduce” and the “transcriptional activity of NFAT (reporter gene activity)” value (NFAT) was “effectively inhibits”.
